Experimental data from article PMC10787677, “Characterization of a novel aspartic protease from Trichoderma asperellum for the preparation of duck blood peptides” (Applied Microbiology and Biotechnology, 2024).
Non-standard residues stand in square brackets, D forms with d. Residues, ends and D or L forms follow the SMILES beside them. *: point of attachment. Sta = CC(C)C[C@H](N)[C@@H](O)CC(=O)O; Isovaleryl = CC(C)CC(=O)*

Target: T1, TaproA1 (Trichoderma asperellum, UniProt A0A6V8QUH5)
T1 construct: mature enzyme about 36 kDa; precursor 521 residues; purified on Q-Sepharose Fast Flow
T1 sequence (A0A6V8QUH5 189-517 limits assumed): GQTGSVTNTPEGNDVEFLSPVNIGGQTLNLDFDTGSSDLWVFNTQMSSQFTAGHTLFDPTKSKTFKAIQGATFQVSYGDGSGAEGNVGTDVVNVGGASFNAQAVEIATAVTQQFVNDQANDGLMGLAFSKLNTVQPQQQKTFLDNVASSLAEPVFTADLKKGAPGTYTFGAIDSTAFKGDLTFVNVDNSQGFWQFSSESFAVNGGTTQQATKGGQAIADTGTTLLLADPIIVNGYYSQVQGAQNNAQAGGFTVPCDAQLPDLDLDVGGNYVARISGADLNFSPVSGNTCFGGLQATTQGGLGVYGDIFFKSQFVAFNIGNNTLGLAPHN
Experiment: residual casein hydrolysis after […] min preincubation, Folin phenol read-out
Assay type: biochemical
Settings: read-out: Relative activity ^b (%)

CC(C)CC(=O)N[C@H](C(=O)N[C@H](C(=O)N[C@@H](CC(C)C)[C@@H](O)CC(=O)N[C@@H](C)C(=O)N[C@@H](CC(C)C)[C@@H](O)CC(=O)O)C(C)C)C(C)C [Pepstatin A] (Isovaleryl-VV[Sta]A[Sta]-OH)
activity at 10 µM: 0.7 ± 0.1%
